Experimental data published in the NIST ThermoML archive (doi:10.1021/acs.jced.8b00583).
Numbers after ± are expanded uncertainties.

Details: for electrical conductivity / viscosity / mass density: 100 kPa; for electrical conductivity / viscosity / mass density / surface tension liquid-gas: Liquid; for electrical conductivity: Alternating current cell with electrodes; for viscosity: Capillary tube (Ostwald / Ubbelohde) method; for mass density: Vibrating tube method; for surface tension liquid-gas: Maximal bubble pressure; for Glass transition temperature: DSC

electrical conductivity (293.15 K) | viscosity (293.15 K) | mass density (293.15 K) | surface tension liquid-gas (293.15 K) | electrical conductivity (298.15 K) | viscosity (298.15 K) | mass density (298.15 K) | surface tension liquid-gas (298.15 K) | electrical conductivity (303.15 K) | viscosity (303.15 K) | mass density (303.15 K) | surface tension liquid-gas (303.15 K) | electrical conductivity (308.15 K) | viscosity (308.15 K) | mass density (308.15 K) | surface tension liquid-gas (308.15 K) | electrical conductivity (313.15 K) | viscosity (313.15 K) | mass density (313.15 K) | surface tension liquid-gas (313.15 K) | also measured | SMILES
0.051 ± 0.005 S/m | 771.6 ± 84 mPa·s | 959.02 ± 1.9 kg/m3 | 31.5 ± 0.3 mN/m | 0.065 ± 0.007 S/m | 546.33 ± 58 mPa·s | 955.95 ± 1.9 kg/m3 | 31.1 ± 0.3 mN/m | 0.082 ± 0.008 S/m | 397.17 ± 42 mPa·s | 952.87 ± 1.9 kg/m3 | 30.8 ± 0.3 mN/m | 0.103 ± 0.01 S/m | 294.59 ± 31 mPa·s | 949.87 ± 1.9 kg/m3 | 30.5 ± 0.3 mN/m | 0.128 ± 0.013 S/m | 222.26 ± 23 mPa·s | 946.81 ± 1.9 kg/m3 | 30.1 ± 0.3 mN/m | electrical conductivity (318.15 K): 0.159 ± 0.016 S/m; viscosity (318.15 K): 163.91 ± 17 mPa·s; mass density (318.15 K): 943.73 ± 1.9 kg/m3; surface tension liquid-gas (318.15 K): 29.8 ± 0.3 mN/m; electrical conductivity (323.15 K): 0.197 ± 0.02 S/m; viscosity (323.15 K): 126.15 ± 13 mPa·s; mass density (323.15 K): 940.83 ± 1.9 kg/m3; surface tension liquid-gas (323.15 K): 29.5 ± 0.3 mN/m; electrical conductivity (328.15 K): 0.244 ± 0.024 S/m; viscosity (328.15 K): 95.03 ± 9.6 mPa·s; mass density (328.15 K): 937.8 ± 1.9 kg/m3; surface tension liquid-gas (328.15 K): 29.1 ± 0.3 mN/m; electrical conductivity (333.15 K): 0.299 ± 0.03 S/m; viscosity (333.15 K): 77.93 ± 7.8 mPa·s; mass density (333.15 K): 934.68 ± 1.9 kg/m3; surface tension liquid-gas (333.15 K): 28.8 ± 0.3 mN/m; Glass transition temperature: -98.90 ± 2.1 °C | CC(=O)O.CCCCN [butylammonium acetate]
0.031 ± 0.003 S/m | 1112 ± 120 mPa·s | 907.81 ± 1.8 kg/m3 | 25.7 ± 0.3 mN/m | 0.038 ± 0.004 S/m | 812.6 ± 89 mPa·s | 904.94 ± 1.8 kg/m3 | 25.4 ± 0.3 mN/m | 0.047 ± 0.005 S/m | 599.38 ± 64 mPa·s | 902.06 ± 1.8 kg/m3 | 25.1 ± 0.3 mN/m | 0.059 ± 0.006 S/m | 448.37 ± 47 mPa·s | 899.18 ± 1.8 kg/m3 | 24.8 ± 0.3 mN/m | 0.073 ± 0.007 S/m | 338.47 ± 35 mPa·s | 896.28 ± 1.8 kg/m3 | 24.5 ± 0.3 mN/m | electrical conductivity (318.15 K): 0.089 ± 0.009 S/m; viscosity (318.15 K): 262.05 ± 27 mPa·s; mass density (318.15 K): 893.32 ± 1.8 kg/m3; surface tension liquid-gas (318.15 K): 24.2 ± 0.3 mN/m; electrical conductivity (323.15 K): 0.109 ± 0.011 S/m; viscosity (323.15 K): 199.16 ± 20 mPa·s; mass density (323.15 K): 890.57 ± 1.8 kg/m3; surface tension liquid-gas (323.15 K): 23.9 ± 0.3 mN/m; electrical conductivity (328.15 K): 0.132 ± 0.013 S/m; viscosity (328.15 K): 154.43 ± 16 mPa·s; mass density (328.15 K): 887.56 ± 1.8 kg/m3; surface tension liquid-gas (328.15 K): 23.6 ± 0.3 mN/m; electrical conductivity (333.15 K): 0.159 ± 0.016 S/m; viscosity (333.15 K): 126.18 ± 13 mPa·s; mass density (333.15 K): 884.61 ± 1.8 kg/m3; surface tension liquid-gas (333.15 K): 23.4 ± 0.3 mN/m; Glass transition temperature: -81.80 ± 2.1 °C | CCCC(=O)[O-].CCCC[NH3+] [n-butylammonium butanoate]
0.287 ± 0.029 S/m | 160.19 ± 16 mPa·s | 976.96 ± 2 kg/m3 | 33.8 ± 0.3 mN/m | 0.332 ± 0.033 S/m | 120.82 ± 12 mPa·s | 973.8 ± 2 kg/m3 | 33.3 ± 0.3 mN/m | 0.384 ± 0.038 S/m | 92.68 ± 9.3 mPa·s | 970.66 ± 1.9 kg/m3 | 32.9 ± 0.3 mN/m | 0.443 ± 0.044 S/m | 72.01 ± 7.2 mPa·s | 967.48 ± 1.9 kg/m3 | 32.4 ± 0.3 mN/m | 0.511 ± 0.051 S/m | 57.07 ± 5.7 mPa·s | 964.4 ± 1.9 kg/m3 | 32 ± 0.3 mN/m | electrical conductivity (318.15 K): 0.588 ± 0.059 S/m; viscosity (318.15 K): 45.61 ± 4.6 mPa·s; mass density (318.15 K): 961.21 ± 1.9 kg/m3; surface tension liquid-gas (318.15 K): 31.5 ± 0.3 mN/m; electrical conductivity (323.15 K): 0.67 ± 0.07 S/m; viscosity (323.15 K): 37.22 ± 3.7 mPa·s; mass density (323.15 K): 958.02 ± 1.9 kg/m3; surface tension liquid-gas (323.15 K): 31.1 ± 0.3 mN/m; electrical conductivity (328.15 K): 0.761 ± 0.076 S/m; viscosity (328.15 K): 30.62 ± 3.1 mPa·s; mass density (328.15 K): 954.95 ± 1.9 kg/m3; surface tension liquid-gas (328.15 K): 30.6 ± 0.3 mN/m; electrical conductivity (333.15 K): 0.873 ± 0.087 S/m; viscosity (333.15 K): 25.39 ± 2.5 mPa·s; mass density (333.15 K): 951.82 ± 1.9 kg/m3; surface tension liquid-gas (333.15 K): 30.2 ± 0.3 mN/m; Glass transition temperature: -108.50 ± 2.1 °C | CCCC[NH3+].O=C[O-] [butylammonium formate]
0.049 ± 0.005 S/m | 916.56 ± 100 mPa·s | 933.95 ± 1.9 kg/m3 | 28.1 ± 0.3 mN/m | 0.06 ± 0.006 S/m | 669.24 ± 72 mPa·s | 930.84 ± 1.9 kg/m3 | 27.8 ± 0.3 mN/m | 0.074 ± 0.007 S/m | 494.64 ± 53 mPa·s | 927.79 ± 1.9 kg/m3 | 27.5 ± 0.3 mN/m | 0.091 ± 0.009 S/m | 371.06 ± 39 mPa·s | 924.86 ± 1.9 kg/m3 | 27.1 ± 0.3 mN/m | 0.111 ± 0.011 S/m | 280.47 ± 29 mPa·s | 921.76 ± 1.9 kg/m3 | 26.8 ± 0.3 mN/m | electrical conductivity (318.15 K): 0.135 ± 0.014 S/m; viscosity (318.15 K): 211.76 ± 22 mPa·s; mass density (318.15 K): 918.77 ± 1.9 kg/m3; surface tension liquid-gas (318.15 K): 26.5 ± 0.3 mN/m; electrical conductivity (323.15 K): 0.164 ± 0.016 S/m; viscosity (323.15 K): 162.68 ± 17 mPa·s; mass density (323.15 K): 915.69 ± 1.8 kg/m3; surface tension liquid-gas (323.15 K): 26.2 ± 0.3 mN/m; electrical conductivity (328.15 K): 0.196 ± 0.02 S/m; viscosity (328.15 K): 128.4 ± 13 mPa·s; mass density (328.15 K): 912.7 ± 1.8 kg/m3; surface tension liquid-gas (328.15 K): 25.9 ± 0.3 mN/m; electrical conductivity (333.15 K): 0.234 ± 0.023 S/m; viscosity (333.15 K): 99.35 ± 10 mPa·s; mass density (333.15 K): 909.66 ± 1.8 kg/m3; surface tension liquid-gas (333.15 K): 25.6 ± 0.3 mN/m; Glass transition temperature: -89.40 ± 2.1 °C | CCC(=O)[O-].CCCC[NH3+] [butylammonium propanoate]
